Experiments:
[1] = Photocleavage by irradiation with a mercury lamp, followed by LCMS; format: physicochemical; details: methanol and water, approximately 250 nm
Experimental: For illustrative purpose, initial testing of 3-(hydroxymethyl)naphthalen-2-ol derivative was carried out. The molecule was dissolved in a mixture of methanol and water, and was then irradiated for 90 min with light from a mercury lamp, which emits light with a wavelength of approximately 250 nm. […] After a further 90 min, there was approximately 20% starting material remaining.
In the experiments illustrated in FIG. 2, the molecule was dissolved in a mixture of methanol and water, and was then irradiated for 90 min with light from a mercury lamp, which emits light with a wavelength of approximately 250 nm. […] After a further 90 min, there was approximately 20% starting material remaining. […] The peak at 5 mins may be due to the diol being released.

[2] = test system: DNA polymerase; assay: Primer extension reaction analysed by PAGE gel; details: incubated at 40° C.; compared with the positive control reaction
Experimental: Competitor oligos, complementary to the templates were also designed to aid gel analysis of a single stranded product. Primer extension reactions were conducted using the following reaction mix:
Following incubated at 40° C. in a hot block reactions were terminated by the addition of a ‘stop buffer’ containing chelators to inhibit polymerase activity in addition to formamide and competitor oligo to encourage denaturation of the double stranded DNA duplex for electrophoresis.

[3] = test system: DNA polymerase; assay: Real-time primer extension analysis (Rotorgene Q, SYBR Safe) with melt analysis; format: biochemical; details: single SC-TTP incorporation, compared with standard dNTPs; FIG. 3A
Text: As specified the linker chain can play an important role, at least in some embodiments, in enabling the nucleotide to remain a polymerase substrate, as such any modified nucleotides have to be shown to be biologically active. In order to exemplify this and as an example of certain embodiments, a polymerase reaction mix may be used for real-time primer extension analysis with Rotor Template, which requires the incorporation of a single SC-TTP nucleotide followed by a sequence of 44 dCTP, dGTP, dATP nucleotides.
Primer extension reactions were monitored using the Rotorgene Q Real-time thermocycler, this allows primer extension to be monitored fluorescently using a dsDNA intercalator (SYBR Safe) with secondary melt analysis to provide further information on product composition. This method can be used with an oligonucleotide primer/template pair designed to allow complete extension of the primer with the incorporation of a single SC-TTP nucleotide. Initially, the experiment was be conducted with a 40° C. incubation and then repeated with a 65° C. incubation (optimum synthesis temperature for most commercial DNA Polymerases). Control reactions with standard dNTPs (positive control) and no dNTPs (negative control) were included, alongside a control(s) for mis-incorporation.

[4] = test system: DNA polymerase; details: single base incorporation; overnight, ambient temperature; FIG. 4
Experimental: Sequencing reactions performed on bulk Si/SiO2 surfaces using both 3′ and 5′ surface tethered 30mer DNA, immobilised onto APDMES/PDC modified Si/SiO2 surface in the typical 4×4 array format. Here, Cy3 labelled dCTP was selectively incorporated to a hybridised primer using the covalently bound 30mer probe as a template. The reaction mix was spread over the silicon surface and incubated overnight in a dark humid chamber at ambient temperature. The silicon was then rinsed in 1× Thermopol buffer and dried using a nitrogen line. Fluorescence was visualised using an Olympus BX60 and imaged using Axio vision camera and Axiovision 3.1 software.
It should be noted that each spot would contain a number of DNA strands where the primer extension has taken place and therefore the florescence observed is due to several Cy3 dCTP's not just one base.

With `COC(COCc1ccccc1)NC(=O)OCc1cc2ccccc2cc1O` (centres unmarked) [(3-Hydroxynaphthalen-2-yl)methyl (2-(benzyloxy)-1-methoxyethyl)carbamate] the “starting material remaining (LCMS)” value ([1]; after a further 90 min irradiation) was “approximately 20%” and the “consumption of the starting material (LCMS)” value ([1]; irradiated for 90 min) was 50%.

With `[N-]=[N+]=NC(COc1cccc(C(=O)NCCNC(=O)c2cc(C(=O)O)cc(C(=O)O)c2)c1)OCCOCC(=O)NCC#Cc1cn([C@H]2C[C@H](O)[C@@H](COP(=O)(O)OP(=O)(O)OP(=O)(O)O)O2)c(=O)[nH]c1=O` (some centres unmarked) [SC-TTP, Penta-Triethylammonium Cleavable SCTTP] the “band shift on gel after primer extension” value [2] was “larger shift” and the “maximum fluorescence intensity associated with incorporation (primer extension)” value [3] was “slightly reduced”.

With `CCN1/C(=C/C=C/C2=[N+](CCCCCC(=O)NCC#Cc3cn(C4CC(O)C(COP(=O)([O-])OP(=O)([O-])OP(=O)([O-])[O-])O4)c(=O)nc3N)c3cc(S(=O)(=O)O)ccc3C2(C)C)C(C)(C)c2ccc(S(=O)(=O)[O-])cc21.[Li+].[Li+].[Li+].[Li+]` (centres unmarked) [Cy3 labelled dCTP] the “fluorescence of printed array post-sequencing and wash steps” value [4] was “very weak fluorescence”.

Source: US11180523B2, “Design, synthesis and use of synthetic nucleotides comprising charge mass tags” (QuantuMDx Group Limited, priority 2016, dated 2021)
